Test results: patent publication US20260183302A1, “PDK1 REGULATORY COMPOUND AND COMPOSITION CONTAINING THE SAME” (PROVIBIO CO., LTD., priority 2024, published 2026)

System: T cells isolated from mouse spleens
Test: T cell proliferation inhibition (CFSE flow cytometry, anti-CD3/anti-CD28 stimulation)
Assay type: cell-based, C57BL/6 mice
Details: three days
Method: To verify the T cell proliferation inhibitory effect of the compounds according to the present invention, the following experiment was performed based on flow cytometry analysis using carboxyfluorescein diacetate succinimidyl ester (CFSE), a fluorescent dye that binds to intracellular molecules via covalent bonds.
Spleens were extracted from 7-week-old C57BL/6 mice, ground, and then separated into single cells using a strainer (40 μm pore size, SPL). Red blood cells were removed using ACK (Ammonium-Chloride-Potassium) lysis buffer to isolate white blood cells.
Finally, using a MACS Magnetic Stand and LS column, T cells were isolated from the spleen.
The T cells isolated from the spleen were resuspended in 1 mL of free medium (RPMI-1640+200 U/mL penicillin+200 μg/mL streptomycin), and 0.3 μL of CFSE (10 mM) was added. The mixture was incubated at 37° C. for 5 minutes.
Free medium (10 mL) was added to stop the reaction, and the cells were centrifuged to obtain the cell pellet.
RPMI 1640 medium containing 10% FBS, 100 U/mL penicillin, 100 μg/mL streptomycin, and resuspended the cells. The cells were then seeded into a 96-well plate at a density of 2× 10^5 cells per well and activated with CD3 and CD28 antibodies (0.5 μg/mL each) to activate T cells.
The compound diluted in DMSO was added at concentrations of 10 nM, 100 nM, 1 μM, 10 μM, 30 μM, and 50 μM, with three wells per concentration, and cultured at 37° C. and 5% CO2 for three days. The cells were then analyzed using a FACS Canto instrument.
The proliferation inhibition rate (%) was calculated using the following formula: […]

Row | Compound | Proliferation inhibition rate (%) (concentration 1 μM) | Proliferation inhibition rate (%) (concentration 10 μM) | Proliferation inhibition rate (%) (concentration 30 μM) | Proliferation inhibition rate (%) (concentration 50 μM) | Proliferation inhibition rate (%) (concentration 100 nM) | Proliferation inhibition rate (%) (concentration 10 nM) | further results
1 | Nc1ncccc1C(=O)NCCCCCCCCCCCCN1CCC2CCCCC2C1 (centres unmarked) [Compound 16, 2-Amino-N-(12-(octahydroisoquinolin-2 (1H)-yl)dodecyl) nicotinamide] | 100.00% | 100.00% | 100.00% | 100.00% | – | – | –
2 | Nc1ncccc1C(=O)NCCCCCCCCCCCCN1CCc2ccccc2C1 [Compound 17, 2-Amino-N-(12-(3,4-dihydroisoquinolin-2 (1H)-yl)dodecyl) nicotinamide] | – | – | – | – | – | – | Proliferation inhibition rate (%) (concentration 10 nM, listed as PBK-2024-004, 0.01 µM): 0.00%; Proliferation inhibition rate (%) (concentration 100 nM, listed as PBK-2024-004, 0.1 µM): −14.00%; Proliferation inhibition rate (%) (concentration 1 μM, listed as PBK-2024-004, 1 µM): 100.00%; Proliferation inhibition rate (%) (concentration 10 μM, listed as PBK-2024-004, 10 µM): 100.00%
3 | CN(CCCCCCCCCCCCNC(=O)c1cccnc1N)C1CCCCC1 [Compound 34, 2-Amino-N-(12-(cyclohexyl(methyl)amino)dodecyl) nicotinamide] | 100.00% | 100.00% | 100.00% | 100.00% | 100.00% | – | –
4 | CC1CN(CCCCCCCCCCCCNC(=O)c2cccnc2N)C(C)CN1.Cl (centres unmarked) [Compound 36, 2-Amino-N-(12-(2,5-dimethylpiperazin-1-yl)dodecyl) nicotinamide hydrochloride] | 100.00% | 100.00% | 100.00% | 100.00% | 100.00% | – | –
5 | Nc1ncccc1C(=O)NCCCCCCCCCCCCN1CCC(O)CC1 [Compound 48, 2-Amino-N-(12-(4-hydroxypiperidin-1-yl)dodecyl) nicotinamide] | 100.00% | 100.00% | 100.00% | 100.00% | 100.00% | – | –
6 | CN(CCCCCCCCCCCCNC(=O)c1cccnc1N)C(C)(C)C [Compound 53, 2-Amino-N-(12-(tert-butyl(methyl)amino)dodecyl) nicotinamide] | 100.00% | 100.00% | 100.00% | 100.00% | 100.00% | – | –
7 | Nc1ncccc1C(=O)NCCCN1CCOCC1 [Compound 78, 2-amino-N-(3-morpholin-4-yl-propyl) nicotinamide] | −3.73% | 0.68% | 4.51% | 8.76% | −4.19% | −7.14% | –
8 | COC1CCN(CCCCCCCCCCCCNC(=O)c2cccnc2N)CC1 [Compound 94, 2-amino-N-(12-(4-methoxypiperidin-1-yl)dodecyl) nicotinamide] | 100.00% | 100.00% | 100.00% | 100.00% | 100.00% | – | –
9 | Nc1ncccc1C(=O)NCCCCCCCCCCCCN1CCN(C=O)CC1 [Compound 97, 2-amino-N-(12-(4-formylpiperazin-1-yl)dodecyl) nicotinamide] | 100.00% | 100.00% | 100.00% | 100.00% | – | – | –
10 | CC(C)(C)OC(=O)NC1CCN(CCCCCCCCCCCCNC(=O)c2cccnc2N)CC1 [Compound 101, tert-Butyl (1-(12-(2-aminonicotinamido)dodecyl)piperidin-4-yl) carbamate] | 100.00% | 100.00% | 100.00% | 100.00% | 100.00% | −0.15% | –
11 | CC(C)N1CCN(CCCCCCCCCCCCNC(=O)c2cccnc2N)CC1 [Compound 104, 2-Amino-N-(12-(4-isopropylpiperazin-1-yl)dodecyl) nicotinamide] | 100.00% | 100.00% | 100.00% | 100.00% | 100.00% | 100.00% | –
12 | CC(C)(C)OC(=O)N1CCN(CCCCCCCCCCCCNC(=O)c2cccnc2N)CC1 [Compound 111, tert-butyl-4-(12-(2-aminonicotinamido)dodecyl) piperazine-1-carboxylate] | 100.00% | 100.00% | 100.00% | 100.00% | 100.00% | 0.00% | –
13 | COC(=O)C1CCN(CCCCCCCCCCCCNC(=O)c2cccnc2N)C1 (centres unmarked) [Compound 116, Methyl-1-(12-(2-aminonicotinamido)dodecyl)pyrrolidine-3-carboxylate] | – | – | – | – | – | – | inhibition at 0.01 µM (Mus musculus, T-cell, 72 h, concentration 10 nM, read-out: Proliferation inhibition rate (%)): -1.9%; inhibition at 0.1 µM (Mus musculus, T-cell, 72 h, concentration 100 nM, read-out: Proliferation inhibition rate (%)): 26.2%; inhibition at 1 µM (Mus musculus, T-cell, 72 h, concentration 1 μM, read-out: Proliferation inhibition rate (%)): 100%; inhibition at 10 µM (Mus musculus, T-cell, 72 h, concentration 10 μM, read-out: Proliferation inhibition rate (%)): 100%; inhibition at 30 µM (Mus musculus, T-cell, 72 h, concentration 30 μM, read-out: Proliferation inhibition rate (%)): 100%; inhibition at 50 µM (Mus musculus, T-cell, 72 h, concentration 50 μM, read-out: Proliferation inhibition rate (%)): 100%
14 | CC(C)(C)OC(=O)N[C@@H]1CCCN(CCCCCCCCCCCCNC(=O)c2cccnc2N)C1 [Compound 117, tert-butyl-(R)-(1-(12-(2-aminonicotinamido)dodecyl)piperidin-3-yl) carbamate] | 100.00% | 100.00% | 100.00% | 100.00% | 100.00% | – | –
15 | Nc1ncccc1C(=O)NCCCCCCCCCCCCN1CCOC1=O [Compound 127, 2-amino-N-(12-(2-oxooxazolidin-3-yl)dodecyl) nicotinamide] | – | 100.00% | 100.00% | 100.00% | – | – | –
16 | Nc1ncccc1C(=O)NCCCCCCCCCCCCNC1CCOC1 (centres unmarked) [Compound 128, 2-amino-N-(12-((tetrahydrofuran-3-yl)amino)dodecyl) nicotinamide] | 100.00% | 100.00% | 100.00% | 100.00% | 100.00% | – | –
17 | CN1CCN(CCCCCCCCCCCCNC(=O)c2ccccc2C(=O)NC2CCCCC2)CC1 [Compound 191, N1-Cyclohexyl-N2-(12-(4-methylpiperazin-1-yl)dodecyl) phthalamide] | 7.39% | 93.26% | 100.00% | 100.00% | 0.00% | 0.00% | –
18 | CN1CCN(CCCCCCCCCCCCNC(=O)c2ccnc(Cl)c2Cl)CC1 [Compound 198, 2,3-Dichloro-N-(12-(4-methylpiperazin-1-yl)dodecyl) isonicotinamide] | 20.12% | 100.00% | 100.00% | 100.00% | 9.41% | 5.35% | –
19 | CN1CCN(CCCCCCCCCCCCNC(=O)c2ccncc2Cl)CC1 [Compound 199, 3-Chloro-N-(12-(4-methylpiperazin-1-yl)dodecyl) isonicotinamide] | 0.00% | 40.00% | 100.00% | 100.00% | 0.00% | 0.00% | –
20 | CN1CCN(CCCCCCCCCCCCNC(=O)c2c(Cl)cncc2Cl)CC1 [Compound 201, 3,5-Dichloro-N-(12-(4-methylpiperazin-1-yl)dodecyl) isonicotinamide] | 8.54% | 78.44% | 100.00% | 100.00% | 6.66% | 7.24% | –
21 | Cc1ccc(C(=O)NCCCCCCCCCCCCN2CCN(C)CC2)nc1 [Compound 202, 5-Methyl-N-(12-(4-methylpiperazin-1-yl)dodecyl) picolinamide] | 18.96% | 100.00% | 100.00% | 100.00% | 13.17% | 4.05% | –
